Read-outs that look alike come from different tables or passages of the source.
Experiments:
[1] = system: JAK1-dependent STAT6 phosphorylation in BEAS-2B human bronchial epithelial cells; assay: JAK1 pathway assay: IL-13 stimulated STAT6 phosphorylation in BEAS-2B cells; type: cell-based; settings: Homo sapiens, BEAS-2B, read-out: IL-13 p-STAT6 BEAS-2B IC50
How it was run: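 BEAS-2B bronchial epithelial cells plated one day before, run in complete growth medium. Phospho-STAT6 in lysates measured by MesoScale Discovery; EC50 reported.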

[2] = target: isolated recombinant JAK1 kinase domain (Homo sapiens (Human), UniProt P23458); assay: JAK1 enzyme assay (Caliper LabChip, Ki); type: biochemical
Experimental: The activity of the isolated recombinant JAK1 and JAK2 kinase domain was measured by monitoring phosphorylation of a peptide derived from JAK3 ([…] fluorescently labeled on the N-terminus with 5-carboxyfluorescein) using the Caliper LabChip R technology (Caliper Life Sciences, Hopkinton, Mass.).

[3] = target: isolated recombinant JAK2 kinase domain (Homo sapiens (Human), UniProt O60674); assay: JAK2 enzyme assay (Caliper LabChip, Ki)
[4] = BEAS-2B cells, IL-13 stimulation

Sequence of isolated recombinant JAK2 kinase domain (O60674 849-1124): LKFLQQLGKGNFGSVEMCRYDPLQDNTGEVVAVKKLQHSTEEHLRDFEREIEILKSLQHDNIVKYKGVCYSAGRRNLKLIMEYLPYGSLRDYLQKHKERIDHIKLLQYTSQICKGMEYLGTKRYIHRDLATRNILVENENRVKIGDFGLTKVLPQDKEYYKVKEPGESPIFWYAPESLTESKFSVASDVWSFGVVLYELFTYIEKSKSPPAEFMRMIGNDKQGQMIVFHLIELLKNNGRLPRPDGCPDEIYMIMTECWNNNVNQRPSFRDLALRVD
Sequence of isolated recombinant JAK1 kinase domain (P23458 875-1153): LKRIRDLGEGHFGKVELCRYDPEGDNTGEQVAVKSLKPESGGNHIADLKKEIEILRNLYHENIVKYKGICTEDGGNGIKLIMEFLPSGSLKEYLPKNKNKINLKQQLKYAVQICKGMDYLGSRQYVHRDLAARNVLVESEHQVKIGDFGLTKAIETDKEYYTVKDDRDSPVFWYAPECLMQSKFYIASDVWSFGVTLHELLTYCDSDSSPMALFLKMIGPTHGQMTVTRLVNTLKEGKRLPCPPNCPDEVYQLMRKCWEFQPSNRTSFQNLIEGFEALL

O=C(Nc1cn(CC(=O)N2CCC(O)CC2)nc1-c1cc2c(cc1OC(F)F)NCCS2)c1cnn2cccnc12 [Example 52, N-[3-[6-(difluoromethoxy)-3,4-dihydro-2H-1,4-benzothiazin-7-yl]-1-[2-(4-hydroxy-1-piperidyl)-2-oxo-ethyl]pyrazol-4-yl]pyrazolo[1,5-a]pyrimidine-3-carboxamide]
IC50 [1, 4]: 285 nM | Ki [2]: 0.16 nM | Ki ([3]; read-out: JAK2 Ki): 0.14 nM

CCN1CCN(C(=O)Cn2cc(NC(=O)c3cnn4cccnc34)c(-c3cc4cn[nH]c4cc3OC(F)F)n2)CC1 [Example 53, N-[3-[6-(difluoromethoxy)-1H-indazol-5-yl]-1-[2-(4-ethylpiperazin-1-yl)-2-oxo-ethyl]pyrazol-4-yl]pyrazolo[1,5-a]pyrimidine-3-carboxamide]
IC50 [1, 4]: 88 nM | Ki [2]: 0.25 nM | Ki ([3]; read-out: JAK2 Ki): 0.39 nM

COc1cc2ccsc2cc1-c1nn(CC(=O)N2CCC(N3CCOCC3)CC2)cc1NC(=O)c1cnn2cccnc12 [Example 54, N-[3-(5-methoxybenzothiophen-6-yl)-1-[2-(4-morpholino-1-piperidyl)-2-oxo-ethyl]pyrazol-4-yl]pyrazolo[1,5-a]pyrimidine-3-carboxamide]
IC50 [1, 4]: 46 nM | Ki [2]: 0.92 nM | Ki ([3]; read-out: JAK2 Ki): 2.1 nM

N#Cc1cc2cc(OC(F)F)c(-c3nn(CC(=O)N4CCC(N5CCOCC5)CC4)cc3NC(=O)c3cnn4cccnc34)cc2s1 [Example 55, N-[3-[2-cyano-5-(difluoromethoxy)benzothiophen-6-yl]-1-[2-(4-morpholino-1-piperidyl)-2-oxo-ethyl]pyrazol-4-yl]pyrazolo[1,5-a]pyrimidine-3-carboxamide]
IC50 [1, 4]: 20 nM | Ki [2]: 0.41 nM | Ki ([3]; read-out: JAK2 Ki): 0.41 nM

NC(=O)c1cc2cc(OC(F)F)c(-c3nn(CC(=O)N4CCC(N5CCOCC5)CC4)cc3NC(=O)c3cnn4cccnc34)cc2s1 [Example 56, N-[3-[2-carbamoyl-5-(difluoromethoxy)benzothiophen-6-yl]-1-[2-(4-morpholino-1-piperidyl)-2-oxo-ethyl]pyrazol-4-yl]pyrazolo[1,5-a]pyrimidine-3-carboxamide]
IC50 [1, 4]: > 333 nM | Ki [2]: 0.39 nM | Ki ([3]; read-out: JAK2 Ki): 0.37 nM

O=C(Nc1cn(CC(=O)N2CCC(N3CCOCC3)CC2)nc1-c1cc2ccccc2cc1OC(F)F)c1cnn2cccnc12 [Example 57, N-[3-[3-(difluoromethoxy)-2-naphthyl]-1-[2-(4-morpholino-1-piperidyl)-2-oxo-ethyl]pyrazol-4-yl]pyrazolo[1,5-a]pyrimidine-3-carboxamide]
IC50 [1, 4]: 17 nM | Ki [2]: 0.56 nM | Ki ([3]; read-out: JAK2 Ki): 0.87 nM

O=C(Nc1cn(CC(=O)N2CCC(N3CCOCC3)CC2)nc1-c1cc2c(cc1OC(F)F)NCCS2)c1cnn2cccnc12 [Example 58, N-[3-[6-(difluoromethoxy)-3,4-dihydro-2H-1,4-benzothiazin-7-yl]-1-[2-(4-morpholino-1-piperidyl)-2-oxo-ethyl]pyrazol-4-yl]pyrazolo[1,5-a]pyrimidine-3-carboxamide]
IC50 [1, 4]: 54 nM | Ki [2]: 0.19 nM | Ki ([3]; read-out: JAK2 Ki): 0.22 nM

O=C(Nc1cn(CC(=O)N2CCC(CN3CCOCC3)CC2)nc1-c1cc2c(cc1OC(F)F)NCCS2)c1cnn2cccnc12 [Example 59, N-[3-[6-(difluoromethoxy)-3,4-dihydro-2H-1,4-benzothiazin-7-yl]-1-[2-[4-(morpholinomethyl)-1-piperidyl]-2-oxo-ethyl]pyrazol-4-yl]pyrazolo[1,5-a]pyrimidine-3-carboxamide]
IC50 [1, 4]: 25 nM | Ki [2]: 0.22 nM | Ki ([3]; read-out: JAK2 Ki): 0.23 nM

N#Cc1cc2cc(OC(F)F)c(-c3nn(CC(=O)N4CCC(CN5CCOCC5)CC4)cc3NC(=O)c3cnn4cccnc34)cc2s1 [Example 60, N-[3-[2-cyano-5-(difluoromethoxy)benzothiophen-6-yl]-1-[2-[4-(morpholinomethyl)-1-piperidyl]-2-oxo-ethyl]pyrazol-4-yl]pyrazolo[1,5-a]pyrimidine-3-carboxamide]
IC50 [1, 4]: 12 nM | Ki [2]: 0.36 nM | Ki ([3]; read-out: JAK2 Ki): 0.35 nM

NC(=O)c1cc2cc(OC(F)F)c(-c3nn(CC(=O)N4CCC(CN5CCOCC5)CC4)cc3NC(=O)c3cnn4cccnc34)cc2s1 [Example 61, N-[3-[2-carbamoyl-5-(difluoromethoxy)benzothiophen-6-yl]-1-[2-[4-(morpholinomethyl)-1-piperidyl]-2-oxo-ethyl]pyrazol-4-yl]pyrazolo[1,5-a]pyrimidine-3-carboxamide]
IC50 [1, 4]: > 333 nM | Ki [2]: 0.64 nM | Ki ([3]; read-out: JAK2 Ki): 0.78 nM

NC(=O)c1cc2cc(OC(F)F)c(-c3nn(CC(=O)N4CCC(=O)CC4)cc3NC(=O)c3cnn4cccnc34)cc2s1 [Example 62, N-[3-[2-carbamoyl-5-(difluoromethoxy)benzothiophen-6-yl]-1-[2-oxo-2-(4-oxo-1-piperidyl)ethyl]pyrazol-4-yl]pyrazolo[1,5-a]pyrimidine-3-carboxamide]
IC50 [1]: > 333 nM | Ki [2]: 0.38 nM | Ki ([3]; read-out: JAK2 Ki): 0.24 nM

CN(CCC#N)C1CCN(C(=O)Cn2cc(NC(=O)c3cnn4cccnc34)c(-c3cc4ccccc4cc3OC(F)F)n2)CC1 [Example 63, N-[1-[2-[4-[2-cyanoethyl(methyl)amino]-1-piperidyl]-2-oxo-ethyl]-3-[3-(difluoromethoxy)-2-naphthyl]pyrazol-4-yl]pyrazolo[1,5-a]pyrimidine-3-carboxamide]
IC50 [1, 4]: 14 nM | Ki [2]: 0.4 nM | Ki ([3]; read-out: JAK2 Ki): 0.58 nM

N#CC1(CNC2CCN(C(=O)Cn3cc(NC(=O)c4cnn5cccnc45)c(-c4cc5sc(C(N)=O)cc5cc4OC(F)F)n3)CC2)CC1 [Example 64, N-[3-[2-carbamoyl-5-(difluoromethoxy)benzothiophen-6-yl]-1-[2-[4-[(1-cyanocyclopropyl)methylamino]-1-piperidyl]-2-oxo-ethyl]pyrazol-4-yl]pyrazolo[1,5-a]pyrimidine-3-carboxamide]
IC50 [1, 4]: > 1000 nM | Ki [2]: 0.29 nM | Ki ([3]; read-out: JAK2 Ki): 0.35 nM

O=C(Nc1cn(CC(=O)N2CCC(CN3CCOCC3)CC2)nc1-c1cc2sccc2cc1OC(F)F)c1cnn2cccnc12 [Example 65, N-[3-[5-(difluoromethoxy)benzothiophen-6-yl]-1-[2-[4-(morpholinomethyl)-1-piperidyl]-2-oxo-ethyl]pyrazol-4-yl]pyrazolo[1,5-a]pyrimidine-3-carboxamide]
IC50 [1, 4]: 13 nM | Ki [2]: 0.41 nM | Ki ([3]; read-out: JAK2 Ki): 0.6 nM

O=C(Nc1cn(CC(=O)N2CCC(N3CCOCC3)CC2)nc1-c1cc2sccc2cc1OC(F)F)c1cnn2cccnc12 [Example 66, N-[3-[5-(difluoromethoxy)benzothiophen-6-yl]-1-[2-(4-morpholino-1-piperidyl)-2-oxo-ethyl]pyrazol-4-yl]pyrazolo[1,5-a]pyrimidine-3-carboxamide]
IC50 [1, 4]: 21 nM | Ki [2]: 0.3 nM | Ki ([3]; read-out: JAK2 Ki): 0.49 nM

CCN1CCN(C(=O)Cn2cc(NC(=O)c3cnn4cccnc34)c(-c3cc4ccccc4cc3OC(F)F)n2)CC1 [Example 67, N-[3-[3-(difluoromethoxy)-2-naphthyl]-1-[2-(4-ethylpiperazin-1-yl)-2-oxo-ethyl]pyrazol-4-yl]pyrazolo[1,5-a]pyrimidine-3-carboxamide]
IC50 [1, 4]: 53 nM | Ki [2]: 2.11 nM | Ki [3]: 4.07 nM

O=CN1CCN(C(=O)Cn2cc(NC(=O)c3cnn4cccnc34)c(-c3cc4ccccc4cc3OC(F)F)n2)CC1 [Example 68, N-[3-[3-(difluoromethoxy)-2-naphthyl]-1-[2-(4-formylpiperazin-1-yl)-2-oxo-ethyl]pyrazol-4-yl]pyrazolo[1,5-a]pyrimidine-3-carboxamide]
IC50 [1, 4]: 35 nM | Ki [2]: 0.88 nM | Ki [3]: 1.62 nM

CN(C)C(=O)CN1CCN(C(=O)Cn2cc(NC(=O)c3cnn4cccnc34)c(-c3cc4ccccc4cc3OC(F)F)n2)CC1 [Example 69, N-[3-[3-(difluoromethoxy)-2-naphthyl]-1-[2-[4-[2-(dimethylamino)-2-oxo-ethyl]piperazin-1-yl]-2-oxo-ethyl]pyrazol-4-yl]pyrazolo[1,5-a]pyrimidine-3-carboxamide]
IC50 [1, 4]: 152 nM | Ki [2]: 0.44 nM | Ki ([3]; read-out: JAK2 Ki): 0.94 nM

CC(C)(C)OC(=O)N1CCN(C(=O)Cn2cc(NC(=O)c3cnn4cccnc34)c(-c3cc4ccccc4cc3OC(F)F)n2)CC1 [Example 70, tert-butyl 4-[2-[3-[3-(difluoromethoxy)-2-naphthyl]-4-(pyrazolo[1,5-a]pyrimidine-3-carbonylamino)pyrazol-1-yl]acetyl]piperazine-1-carboxylate]
IC50 [1, 4]: 25 nM | Ki [2]: 0.35 nM | Ki ([3]; read-out: JAK2 Ki): 1.16 nM

O=C(Nc1cn(CC(=O)N2CCNCC2)nc1-c1cc2ccccc2cc1OC(F)F)c1cnn2cccnc12 [Example 71, N-[3-[3-(difluoromethoxy)-2-naphthyl]-1-(2-oxo-2-piperazin-1-yl-ethyl)pyrazol-4-yl]pyrazolo[1,5-a]pyrimidine-3-carboxamide]
IC50 [1, 4]: 78 nM | Ki [2]: 0.86 nM | Ki ([3]; read-out: JAK2 Ki): 1.6 nM

CN1CCC[C@@H]1Cn1cc(NC(=O)c2cnn3cccnc23)c(-c2cc3c(cc2OC(F)F)NCCS3)n1 [Example 72, N-[3-[6-(difluoromethoxy)-3,4-dihydro-2H-1,4-benzothiazin-7-yl]-1-[[(2R)-1-methylpyrrolidin-2-yl]methyl]pyrazol-4-yl]pyrazolo[1,5-a]pyrimidine-3-carboxamide]
IC50 [1, 4]: 10 nM | Ki [2]: 0.22 nM | Ki ([3]; read-out: JAK2 Ki): 0.22 nM

CN1CCC[C@@H]1Cn1cc(NC(=O)c2cnn3cccnc23)c(-c2cc3c(cc2OC(F)F)NC(=O)CS3)n1 [Example 73, N-[3-[6-(difluoromethoxy)-3-oxo-4H-1,4-benzothiazin-7-yl]-1-[[(2R)-1-methylpyrrolidin-2-yl]methyl]pyrazol-4-yl]pyrazolo[1,5-a]pyrimidine-3-carboxamide]
IC50 [1, 4]: 9 nM | Ki [2]: 0.2 nM | Ki ([3]; read-out: JAK2 Ki): 0.19 nM

From patent publication US11155557B2, “Pyrazolopyrimidine compounds and methods of use thereof” (Genentech, Inc., priority 2016, dated 2021)
